System: A498 complex spheroids with HUVEC/MSC, growth
Assay: Anticancer human tumor A498 cell line growth inhibition [AhR];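 note: seven day exposure starting three days after spheroid seeding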;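 for viability, T/C: luminescence signal used as a surrogate for viable cells; luminescence viability scaled so 100% equals DMSO vehicle wells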
Details: for IC50: curve of first compound; for viability, T/C: stronger effect = lower value
Method in brief: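 Spheroids combined tumor cells with HUVEC endothelial cells and human MSCs as stroma. AhR antagonists were paired with standard or investigational drugs, each dosed in half-log steps down from near clinical Cmax, or from 10 microM where Cmax was unknown.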

[1] = second compound 0.1 µM, first compound 0.0316 µM
[2] = second compound 0.1 µM, first compound 0.1 µM
[3] = second compound 0.1 µM, first compound 0.316 µM
[4] = second compound 0.1 µM, first compound 1 µM
[5] = second compound 0.1 µM, first compound 3.16 µM
[6] = second compound 0.1 µM, first compound 10 µM
[7] = second compound 0.316 µM, first compound 0.0316 µM
[8] = second compound 0.316 µM, first compound 0.1 µM
[9] = second compound 0.316 µM, first compound 0.316 µM
[10] = second compound 0.316 µM, first compound 1 µM
[11] = second compound 0.316 µM, first compound 3.16 µM
[12] = second compound 0.316 µM, first compound 10 µM
[13] = second compound 1 µM, first compound 0.0316 µM
[14] = second compound 1 µM, first compound 0.1 µM
[15] = second compound 1 µM, first compound 0.316 µM
[16] = second compound 1 µM, first compound 1 µM
[17] = second compound 1 µM, first compound 3.16 µM
[18] = second compound 1 µM, first compound 10 µM
[19] = second compound 3.16 µM, first compound 0.0316 µM
[20] = second compound 3.16 µM, first compound 0.1 µM
[21] = second compound 3.16 µM, first compound 0.316 µM
[22] = second compound 3.16 µM, first compound 1 µM
[23] = second compound 3.16 µM, first compound 3.16 µM
[24] = second compound 3.16 µM, first compound 10 µM
[25] = second compound 10 µM, first compound 0.0316 µM
[26] = second compound 10 µM, first compound 0.1 µM
[27] = second compound 10 µM, first compound 0.316 µM
[28] = second compound 10 µM, first compound 1 µM
[29] = second compound 10 µM, first compound 3.16 µM
[30] = second compound 10 µM, first compound 10 µM
[31] = second compound 0.1 µM, first compound 0.00316 µM
[32] = second compound 0.1 µM, first compound 0.01 µM
[33] = second compound 0.316 µM, first compound 0.00316 µM
[34] = second compound 0.316 µM, first compound 0.01 µM
[35] = second compound 1 µM, first compound 0.00316 µM
[36] = second compound 1 µM, first compound 0.01 µM
[37] = second compound 3.16 µM, first compound 0.00316 µM
[38] = second compound 3.16 µM, first compound 0.01 µM
[39] = second compound 10 µM, first compound 0.00316 µM
[40] = second compound 10 µM, first compound 0.01 µM

Row | SMILES | IC50 (second compound 0.1 µM) | IC50 (second compound 0.316 µM) | IC50 (second compound 1 µM) | IC50 (second compound 3.16 µM) | IC50 (second compound 10 µM) | viability, T/C [1] | viability, T/C [2] | viability, T/C [3] | viability, T/C [4] | viability, T/C [7] | viability, T/C [8] | viability, T/C [9] | viability, T/C [10] | viability, T/C [13] | viability, T/C [14] | viability, T/C [15] | viability, T/C [16] | viability, T/C [19] | viability, T/C [20] | viability, T/C [21] | further results
1 | CC(C)c1c(-c2ccccc2)nc2c(C#N)c[nH]n2c1=O + CC(CO)NC(=O)c1cc(-c2ccc(Cl)cc2)nn(-c2cnn(C)c2)c1=O | > 10000 nM | > 10000 nM | > 10000 nM | > 10000 nM | > 10000 nM | 94.6% | 93.3% | 93.3% | 96.4% | 91.9% | 90.5% | 94.6% | 83.1% | 85.8% | 92.6% | 90.7% | 76.5% | 81.5% | 86.1% | 96.2% | viability, T/C [5]: 101%; viability, T/C [6]: 103%; viability, T/C [11]: 87.3%; viability, T/C [12]: 88.5%; viability, T/C [17]: 87.1%; viability, T/C [18]: 90.7%; viability, T/C [22]: 75.3%; viability, T/C [23]: 75.9%; viability, T/C [24]: 81.5%; viability, T/C [25]: 61.8%; viability, T/C [26]: 63.3%; viability, T/C [27]: 70.5%; viability, T/C [28]: 58.9%; viability, T/C [29]: 64%; viability, T/C [30]: 72.2%
2 | CC1COCCN1c1cc(-c2ccnn2C)c2ccnc(-c3ccn[nH]3)c2n1 (stereo not given) + CC(CO)NC(=O)c1cc(-c2ccc(Cl)cc2)nn(-c2cnn(C)c2)c1=O | 77.7 nM | 78.8 nM | 72.7 nM | 62 nM | 41.7 nM | 82.3% | 40.5% | 20.1% | 13% | 76% | 44.1% | 17.1% | 14.3% | 78.6% | 39.1% | 18.4% | 15.7% | 70.7% | 34.9% | 21.4% | viability, T/C [31]: 96.4%; viability, T/C [32]: 103%; viability, T/C [33]: 90%; viability, T/C [34]: 104%; viability, T/C [35]: 93.6%; viability, T/C [36]: 92.6%; viability, T/C [37]: 88.6%; viability, T/C [38]: 84.9%; viability, T/C [22]: 15.4%; viability, T/C [39]: 65.7%; viability, T/C [40]: 68.5%; viability, T/C [25]: 55.1%; viability, T/C [26]: 31.6%; viability, T/C [27]: 20.2%; viability, T/C [28]: 14%
3 | COc1ccc([C@@H](O)c2cc(-c3ncnc4cc(N5CCOCC5)ccc34)c(F)cc2Cl)nn1 + CC(CO)NC(=O)c1cc(-c2ccc(Cl)cc2)nn(-c2cnn(C)c2)c1=O | 346 nM | 307 nM | 307 nM | 230 nM | 74.4 nM | 83.6% | 79.5% | 49.9% | 26.2% | 78% | 73% | 48.4% | 23.9% | 77.7% | 73.2% | 48.7% | 22.8% | 70.9% | 67.9% | 42.7% | viability, T/C [5]: 15.1%; viability, T/C [6]: 9.67%; viability, T/C [11]: 13.6%; viability, T/C [12]: 8.99%; viability, T/C [17]: 14.3%; viability, T/C [18]: 9.42%; viability, T/C [22]: 20.8%; viability, T/C [23]: 12.9%; viability, T/C [24]: 10%; viability, T/C [25]: 55.3%; viability, T/C [26]: 49.3%; viability, T/C [27]: 33.1%; viability, T/C [28]: 21.1%; viability, T/C [29]: 12.3%; viability, T/C [30]: 7.61%
4 | COc1cccc2c1C(=O)c1c(O)c3c(c(O)c1C2=O)CC(O)(C(=O)CO)CC3OC1CC(N)C(O)C(C)O1 (stereo not given) + Cc1ccccc1N=Nc1ccc(NC(=O)c2ccnn2C)c(C)c1 | 290 nM | 397 nM | 369 nM | 397 nM | 400 nM | 61.7% | 52.4% | 49.6% | 23.8% | 65.6% | 61.6% | 55.7% | 25.5% | 58.6% | 60.4% | 52.9% | 25.7% | 59.9% | 62.6% | 52.9% | viability, T/C [5]: 1.17%; viability, T/C [6]: 0.89%; viability, T/C [11]: 1.09%; viability, T/C [12]: 1.35%; viability, T/C [17]: 1.54%; viability, T/C [18]: 0.92%; viability, T/C [22]: 30.6%; viability, T/C [23]: 2.05%; viability, T/C [24]: 0.61%; viability, T/C [25]: 61.7%; viability, T/C [26]: 57.5%; viability, T/C [27]: 55.4%; viability, T/C [28]: 27%; viability, T/C [29]: 1.19%; viability, T/C [30]: 1.56%
5 | Nc1ncn(C2CC(O)C(CO)O2)c(=O)n1 (stereo not given) + Cc1ccccc1N=Nc1ccc(NC(=O)c2ccnn2C)c(C)c1 | > 1000 nM | > 1000 nM | > 1000 nM | > 1000 nM | > 1000 nM | 88.8% | 93.6% | 86.2% | 77.1% | 97.4% | 84% | 78.5% | 76.1% | 84.4% | 74.9% | 74.6% | 70.6% | 85.8% | 73.9% | 80% | viability, T/C [31]: 88.8%; viability, T/C [32]: 91.7%; viability, T/C [33]: 97%; viability, T/C [34]: 97.5%; viability, T/C [35]: 81.2%; viability, T/C [36]: 87.3%; viability, T/C [37]: 84.9%; viability, T/C [38]: 87.2%; viability, T/C [22]: 64%; viability, T/C [39]: 90.7%; viability, T/C [40]: 86.7%; viability, T/C [25]: 76.9%; viability, T/C [26]: 85.3%; viability, T/C [27]: 74.8%; viability, T/C [28]: 68%

From PubChem BioAssay AID1919007 (Molecular Pharmacology Branch, DTP, NCI, 2023)
